Measurements reported in patent US10597388B2, “Pyridazinone herbicides” (FMC CORPORATION, priority 2014, dated 2020).

Columns and labels:
Type in all cases: in vivo
[1] = system: blackgrass (Alopecurus myosuroides); experiment: Test A greenhouse herbicide test, postemergence; settings: for Plant response rating, Blackgrass: 125 g ai/ha, 0 to 100 scale where 0 is no effect and 100 is complete control; for Blackgrass plant response rating: 0 to 100 scale, 0 is no effect, 100 is complete control
How it was run: (§1)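 Pot-grown plants (loam soil/sand blend), 2–10 cm tall at the one- to two-leaf stage, received postemergence sprays of formulated test chemical. After about 10 d in the greenhouse, injury was rated visually against untreated controls on a 0 (no effect) to 100 (complete control) scale.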

[2] = system: galium (catchweed bedstraw, Galium aparine); experiment: Test A greenhouse herbicide test, postemergence; settings: for Plant response rating, Galium: 125 g ai/ha, 0 to 100 scale where 0 is no effect and 100 is complete control; for Galium plant response rating: 0 to 100 scale, 0 is no effect, 100 is complete control
How it was run: as §1

[3] = system: barnyardgrass (Echinochloa crus-galli); experiment: Test B flooded paddy test; settings: 250 g ai/ha, Flood; visual rating on scale of 0 to 100 where 0 is no effect and 100 is complete control; 13 to 15 d after treatment
How it was run: (§2)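 Plants grown to the 2-leaf stage. At treatment, pots were flooded to 3 cm above the soil, compound was applied directly to the paddy water, and that depth was held throughout. After 13 to 15 d in the greenhouse, response was rated visually against controls on a 0 (no effect) to 100 (complete control) scale.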

[4] = system: ducksalad (Heteranthera limosa); experiment: Test B flooded paddy test; settings: 250 g ai/ha, Flood; visual rating on scale of 0 to 100 where 0 is no effect and 100 is complete control; 13 to 15 d after treatment
How it was run: as §2

rice (Oryza sativa) = experiment: Test B flooded paddy test; settings: 250 g ai/ha, Flood; visual rating on scale of 0 to 100 where 0 is no effect and 100 is complete control; 13 to 15 d after treatment
How it was run: as §2

[5] = system: sedge, umbrella (small-flower umbrella sedge, Cyperus difformis); experiment: Test B flooded paddy test; settings: 250 g ai/ha, Flood; visual rating on scale of 0 to 100 where 0 is no effect and 100 is complete control; 13 to 15 d after treatment
How it was run: as §2

[6] = system: chickweed (common chickweed, Stellaria media); experiment: Test C greenhouse herbicide test, postemergence
How it was run: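 Greenhouse postemergence spray on plants 2–18 cm tall; response judged visually after 13–15 d relative to untreated controls using a 0 (none) to 100 (full control) scale.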

[7] = system: oat, wild (wild oat, Avena fatua); experiment: Test D controlled growth environment herbicide test, pre- and postemergence; settings: for Oat, Wild plant response rating / Plant response rating (scale of 0 to 100), Oat, Wild: 31 g ai/ha
Excerpt: Seeds of plant species selected from bluegrass (annual bluegrass, Poa annua), blackgrass (Alopecurus myosuroides), Canada thistle (Cirsium arvense), canarygrass (Phalaris minor), chickweed (common chickweed, Stellaria media), geranium, cutleaf (cutleaf geranium, Geranium dissectum), galium (catchweed bedstraw, Galium aparine), bromegrass, downy (downy bromegrass, Bromus tectorum), field poppy (Papaver rhoeas), field violet (Viola arvensis), foxtail, green (green foxtail, Setaria viridis), deadnettle (henbit deadnettle, Lamium amplexicaule), ryegrass, Italian (Italian ryegrass, Lolium multiflorum), kochia (Kochia scoparia), lambsquarters (Chenopodium album), oilseed rape (Brassica napus), pigweed (Amaranthus retroflexus), chamomile (scentless chamomile, Matricaria inodora), Russian thistle (Salsola kali), speedwell (bird's-eye speedwell, Veronica persica), barley, spring (spring barley, Hordeum vulgare), wheat, spring (spring wheat, Triticum aestivum), buckwheat, wild (wild buckwheat, Polygonum convolvulus), mustard, wild (wild mustard, Sinapis arvensis), oat, wild (wild oat, Avena fatua), radish, wild (wild radish, Raphanus raphanistrum), windgrass (Apera spica-venti), barley, winter (winter barley, Hordeum vulgare), and wheat, winter (winter wheat, Triticum aestivum) were planted into a silt loam soil and treated preemergence with test chemicals formulated in a non-phytotoxic solvent mixture which included a surfactant.
At the same time, these species were planted in pots containing Redi-Earth® planting medium (Scotts Company, 14111 Scottslawn Road, Marysville, Ohio 43041) comprising spaghnum peat moss, vermiculite, wetting agent and starter nutrients and treated with postemergence applications of the test chemicals formulated in the same manner. Plants ranged in height from 2 to 18 cm (1- to 4-leaf stage). Treated plants and controls were maintained in a controlled growth environment for 14 to 21 d after which time all species were compared to controls and visually evaluated. Plant response ratings, summarized in Table D, are based on a scale of 0 to 100 where 0 is no effect and 100 is complete control. A dash (-) response means no test result.

[8] = Postemergence, 31 g ai/ha, 0 to 100 scale (0 no effect, 100 complete control)
[9] = Postemergence, 125 g ai/ha, scale 0 to 100, 0 is no effect, 100 is complete control
[10] = Postemergence, 250 g ai/ha, scale 0 to 100, 0 no effect, 100 complete control, 13 to 15 d
[11] = postemergence, 62 g ai/ha, scale 0 to 100, 0 no effect, 100 complete control
[12] = Postemergence, scale 0 to 100 (0 no effect, 100 complete control)
[13] = Postemergence, 125 g ai/ha, visual rating on scale 0 (no effect) to 100 (complete control), 14 to 21 d
[14] = Postemergence, 250 g ai/ha, scale 0 to 100 (0 no effect, 100 complete control)
[15] = Preemergence, 62 g ai/ha, scale 0 to 100 (0 no effect, 100 complete control)
[16] = Preemergence, 125 g ai/ha, scale 0 to 100 (0 no effect, 100 complete control)
[17] = Preemergence, 250 g ai/ha, scale 0 to 100 (0 no effect, 100 complete control)

| Compound | Plant response rating, Blackgrass [1] | Blackgrass plant response rating ([1]; 500 g ai/ha) | Plant response rating, Galium [2] | Galium plant response rating ([2]; 500 g ai/ha) | Plant response rating, Barnyardgrass [3] | Plant response rating, Ducksalad [4] | Plant response rating, Rice (rice (Oryza sativa)) | Plant response rating, Sedge, Umbrella [5] | Chickweed plant response rating [6, 8] | Plant response rating, Chickweed [6, 9] | Plant response rating, Chickweed [6, 10] | Chickweed plant response rating [6, 11] | Oat, Wild plant response rating [7, 12] | Plant response rating, Oat, Wild [7, 13] | Plant response rating, Oat, Wild [7, 14] | Plant response rating (scale of 0 to 100), Oat, Wild ([7]; Preemergence) | Plant response rating, Oat, Wild [7, 15] | Plant response rating, Oat, Wild [7, 16] | Plant response rating, Oat, Wild [7, 17] | Plant response rating, Oat, Wild [7, 11] | other results |
| --- | --- | --- | --- | --- | --- | --- | --- | --- | --- | --- | --- | --- | --- | --- | --- | --- | --- | --- | --- | --- | --- |
| COc1nn(C)c(=O)c(-c2c(C)ccc3ccccc23)c1O [Compound 54] | 20 | 40 | 100 | 100 | 0 | 0 | 0 | 0 | 95 | 95 | 100 | 95 | 75 | 90 | 90 | 75 | 75 | 85 | 95 | 85 |  |
| Cc1ccc2ccccc2c1-c1c(O)c(C)nn(C)c1=O [Compound 59] | 90 | 100 | 100 | 100 | 0 | 0 | 0 | 0 | 90 | 98 | 98 | 98 | 80 | 95 | 98 | 90 | 90 | 95 | 100 | 90 |  |
| Cc1ccc2ccc(C)c(-c3c(O)c(C)nn(C)c3=O)c2c1 [Compound 60] |  |  |  |  | 35 | 20 | 35 | 30 | 90 | 95 | 98 | 95 | 85 | 95 | 100 | 90 | 95 | 100 | 100 | 90 | Blackgrass plant response rating ([1]; 1000 g ai/ha): 90; Galium plant response rating ([2]; 1000 g ai/ha): 100 |
| Cc1cc(C)c2sc(C)c(-c3c(OC(=O)OC(C)C)c(C)nn(C)c3=O)c2c1 [Compound 67] | 70 | 80 | 80 | 90 | 0 | 0 | 0 | 0 | 90 | 95 | 95 | 95 | 95 | 100 | 100 | 70 | 75 | 80 | 90 | 98 |  |
| CCOC(=O)Oc1c(C)nn(C)c(=O)c1-c1c(C)ccc2ccccc12 [Compound 73] | 90 | 90 | 100 | 100 | 0 | 0 | 0 | 0 | 90 | 95 | 95 | 90 | 85 | 95 | 100 | 75 | 90 | 85 | 100 | 95 |  |
| COC(=O)Oc1c(C)nn(C)c(=O)c1-c1c(C)sc2c(C)cc(C)cc12 [Compound 81] | 90 | 90 | 100 | 100 | 60 | 70 | 60 | 80 | 90 | 95 | 95 | 90 | 85 | 95 | 98 | 85 | 85 | 85 | 95 | 90 |  |
